Source: patent publication US20030158093A1, “Bifunctional glycopeptide antibiotics and combinatorial libararies thereof” (priority 2001, published 2003)
≈ marks a conversion by molar mass, not a printed value.

What was measured:
Type in all cases: cell-based
[1] = system: E. faecalis sensitive (29212); test: MIC, standard microdilution assay, E. faecalis sensitive; settings: strain 29212; for MIC: Enterococcus faecalis, 22 h
Experimental: (§1) Briefly, compound 7 and compound 10 were synthesized by utilizing procedures described, for example, in Thompson, C. et al., J. Am. Chem. Soc., 1999, 121, 1237. Compound 8 was prepared from tri-O-acetyl-D-glucal by a one-step procedure described by Chen, Z. Ph.D. Dissertation, Princeton University, Princeton, N.J. 2001.

[2] = system: E. faecalis resistant (VanB) (CL4877); test: MIC, standard microdilution assay, E. faecalis resistant (VanB); settings: strain CL4877; for MIC: Enterococcus faecalis, 22 h
Experimental: as §1

[3] = system: E. faecium sensitive (49624); test: MIC, standard microdilution assay, E. faecium sensitive; settings: strain 49624; for MIC: Enterococcus faecium, 22 h
Experimental: as §1

[4] = system: S. aureus (29213); test: MIC, standard microdilution assay, S. aureus; settings: strain 29213; for MIC: Staphylococcus aureus, 22 h
Experimental: as §1

[5] = system: E. faecium resistant (VanA) (CL4931); test: MIC, standard microdilution assay, E. faecium resistant (VanA); settings: strain CL4931; for MIC: Enterococcus faecium, 22 h
Experimental: as §1

[6] = system: transglycosylation; test: Inhibition of transglycosylation in a permeabilized E. coli model

COc1cccc(OC)c1OCCOC1OC(C(N)=O)C(OC)C(NC(=O)Nc2ccc(Cl)c(C(F)(F)F)c2)C1OC1OC(CO)C(O)C(O)C1NC(=O)c1cccc(C(F)(F)F)c1 (stereo not drawn) [Compound 6] was tested, and the MIC ([1]; Table 2) was 125 µg/mL (≈ 133 µM), the MIC ([2]; Table 2) was 250 µg/mL (≈ 266 µM) and the MIC ([3]; Table 2) was 250 µg/mL (≈ 266 µM). It also gave an MIC ([4]; Table 2) of 125 µg/mL (≈ 133 µM) and an MIC ([5]; Table 2) of 250 µg/mL (≈ 266 µM).
CN[C@H](CC(C)C)C(=O)N[C@H]1C(=O)N[C@@H](CC(N)=O)C(=O)N[C@H]2C(=O)N[C@H]3C(=O)N[C@H](C(=O)N[C@H](C(=O)O)c4cc(O)cc(O)c4-c4cc3ccc4O)[C@H](O)c3ccc(c(Cl)c3)Oc3cc2cc(c3O)Oc2ccc(cc2Cl)[C@H]1O [Vancomycin Aglycon, Vancomycin aglycone] was tested, and the “22-hr MIC E. faecalis sensitive” value ([1]; Table 2) was 8 µg/mL, the “22-hr MIC E. faecalis resistant (VanB)” value ([2]; Table 2) was over 500 µg/mL and the “22-hr MIC E. faecium sensitive” value ([3]; Table 2) was 2 µg/mL. For the same compound, the “22-hr MIC S. aureus” value ([4]; Table 2) was 2 µg/mL and the “22-hr MIC E. faecium resistant (VanA)” value ([5]; Table 2) was over 500 µg/mL.
CCCCCCCCCCCCOP(=O)(O)OC1OC(C(N)=O)C(OC)C(NC(=O)Nc2ccc(Cl)c(C(F)(F)F)c2)C1OC1OC(CO)C(O)C(O)C1NC(=O)c1cccc(C(F)(F)F)c1 (stereo not drawn) [Compound 4] was tested, and the inhibition of transglycosylation [6] was “inhibits transglycosylation”, the MIC ([1]; Table 2) was 6.2 µg/mL (≈ 6.14 µM) and the MIC ([2]; Table 2) was 3.1 µg/mL (≈ 3.07 µM). The MIC ([3]; Table 2) was 6.2 µg/mL (≈ 6.14 µM), the MIC ([4]; Table 2) was 6.2 µg/mL (≈ 6.14 µM) and the MIC ([5]; Table 2) was 6.2 µg/mL (≈ 6.14 µM).
In the case of vancomycin [Compound 1a], the “MIC E. faecalis sensitive” value ([1]; Table 1, 35° C., 22h) is reported as 16 µg/mL, the “MIC E. faecalis resistant (VanB)” value ([2]; Table 1, 35° C., 22h) is reported as over 500 µg/mL and the “MIC E. faecium sensitive” value ([3]; Table 1, 35° C., 22h) is reported as 2 µg/mL. For the same compound, the “MIC S. aureus” value ([4]; Table 1, 35° C., 22h) was 4 µg/mL and the “MIC E. faecium resistant (VanA)” value ([5]; Table 1, 35° C., 22h) was over 500 µg/mL.
